Experimental data reported in paper PMC12187842, “A novel molecule targeting neutrophil-mediated B-1a cell trogocytosis attenuates sepsis-induced acute lung injury” (Frontiers in Immunology, 2025).

What was measured:
Format in all cases: in vivo, mouse
[1] = test system: CLP-induced sepsis in C57BL/6 mice; test: Lung tissue mRNA expression in CLP mice by real-time qPCR; details: C11 10 mg/kg i.p. once after CLP (Figure 5 legend: 10 μg/kg); 20 h; normalized to β-actin; n = 5-7/group; vs. CLP vehicle
From the text: (§1) Mice were anesthetized with 2% isoflurane in oxygen, and sepsis was induced via cecal ligation and puncture (CLP) ([26]). A 1-cm midline abdominal incision was made to expose the cecum, which was ligated 1-cm proximal to its end using a 4-0 silk suture. The cecum then was perforated with a single through-and-through puncture using a 22-gauge needle, positioned midway between the ligation and the tip of the cecum. A small amount of fecal material was gently extruded from the perforation sites to confirm the patency of the punctures, and the cecum was subsequently returned to the peritoneal cavity. Following abdominal closure, resuscitation was provided via subcutaneous (s.c.) injection of 500 µL normal saline. Postoperative analgesia was administered with a single dose of 0.1 mg/kg buprenorphine. To evaluate the effects of the therapeutic peptide (named Compound 11 or C11) (synthesized by GenScript USA Inc., Piscataway, NJ) on sepsis, C57BL/6 mice were assigned to three experimental groups: the Sham group, the CLP group treated with vehicle, and the CLP group treated with C11 (10 mg/kg). C11 was dissolved in DMSO (10 mg/mL) and diluted with saline to a total volume of 500 µL. The peptide was administered once, immediately after surgery, via intraperitoneal (i.p.) injection. Mice in the vehicle group received an equivalent volume of DMSO and normal saline via i.p. injection. After 20 h, lungs were harvested, and blood was collected via cardiac puncture. For the survival study, animals received a single subcutaneous (s.c.) injection of 0.5 mg/kg imipenem at the end of the CLP.
Total RNA was extracted from lungs using a TRIzol reagent (Thermo Fisher Scientific) according to the manufacturer’s instructions. cDNA was synthesized using M-MLV reverse transcriptase (Thermo Fisher Scientific). Quantitative real-time PCR (qPCR) was performed using SYBR Green PCR Master Mix (Thermo Fisher Scientific) with a StepOnePlus Real-Time PCR thermocycler (Thermo Fisher Scientific). Mouse β-actin served as an endogenous control to normalize mRNA levels using the comparative Ct method. […]

[2] = test system: CLP-induced sepsis in C57BL/6 mice; test: Survival study in CLP mice; details: C11 10 mg/kg i.p. once after CLP (Figure 5 legend: 10 μg/kg), single s.c. imipenem 0.5 mg/kg; n = 21/group; CLP vehicle 28.6%; p < 0.05 vs. CLP vehicle, log-rank
From the text: (§2) Mice were anesthetized with 2% isoflurane in oxygen, and sepsis was induced via cecal ligation and puncture (CLP) ([26]). A 1-cm midline abdominal incision was made to expose the cecum, which was ligated 1-cm proximal to its end using a 4-0 silk suture. The cecum then was perforated with a single through-and-through puncture using a 22-gauge needle, positioned midway between the ligation and the tip of the cecum. A small amount of fecal material was gently extruded from the perforation sites to confirm the patency of the punctures, and the cecum was subsequently returned to the peritoneal cavity. Following abdominal closure, resuscitation was provided via subcutaneous (s.c.) injection of 500 µL normal saline. Postoperative analgesia was administered with a single dose of 0.1 mg/kg buprenorphine. […]
All statistical analyses were performed using Prism 10 (GraphPad Software, San Diego, CA). Data are expressed as the mean ± standard error of the mean (SEM), and p-values < 0.05 were considered statistically significant. […] For survival analysis, data were assessed using the Kaplan-Meier estimator and compared using the log-rank test.

[3] = test system: neutrophil-mediated B-1a cell trogocytosis; test: Neutrophil-mediated B-1a cell trogocytosis by flow cytometry after C11 treatment in CLP mice; details: C11 10 mg/kg i.p. once immediately after CLP; cells isolated 4 h after CLP; CFSE-positive events within Ly6G-positive neutrophils; n = 5-6/group; p < 0.05 vs. C11 (-)
From the text: as §2, with “saline.” for “saline. Postoperative analgesia was administered with a single dose of 0.1 mg/kg buprenorphine.”
B-1a cells (target cells) were isolated, and dead cells were removed using the EasySep Dead Cell Removal Kit (Cat. No. 17899, STEMCELL Technologies). […] Trogocytosis was evaluated using confocal imaging (LSM900; Zeiss, Oberkochen, Germany) to visualize the interaction between neutrophils and B-1a cells. NucBlue Live ReadyProbes Reagent (Thermo Fisher Scientific) was used for nuclear staining. For quantitative analysis, trogocytosis was assessed by flow cytometry, where CFSE (Carboxyfluorescein succinimidyl ester)-positive events within Ly6G-positive neutrophil populations were quantified as indicators of trogocytosis. […]

[4] = test system: CLP-induced sepsis in C57BL/6 mice; test: Lung myeloperoxidase activity in CLP mice; details: C11 10 mg/kg i.p. once after CLP (Figure 5 legend: 10 μg/kg); 20 h; n = 5-7/group; vs. CLP vehicle
From the text: as §2
Approximately 50 to 100 mg of septic lung tissue, previously snap-frozen in liquid nitrogen and pulverized into a fine powder, was homogenized in potassium phosphate (KPO4) buffer containing 0.5% hexadecyltrimethylammonium bromide (HTAB; MilliporeSigma, Burlington, MA). […] The enzymatic reaction was monitored by measuring light absorbance at 460 nm over a five-minute period. MPO activity was expressed as units per gram of tissue, where one unit was defined as the change in absorbance per minute.

[5] = test system: CLP-induced sepsis in C57BL/6 mice; test: Lung histopathology (H&E) in CLP mice; details: C11 10 mg/kg i.p. once after CLP (Figure 5 legend: 10 μg/kg); 20 h; n = 5-7/group; vs. CLP vehicle
From the text: as §1, with “The peptide was administered once, immediately after surgery, via intraperitoneal (i.p.) injection. Mice in the vehicle group received an equivalent volume of DMSO and normal saline via i.p. injection. After 20 h, lungs were harvested, and blood was collected via cardiac puncture. For the survival study, animals received a single subcutaneous (s.c.) injection of 0.5 mg/kg imipenem at the end of the CLP.” left out
Lung tissues were fixed in 10% formalin, embedded in paraffin, sectioned into 5-μm-thick slices, and stained with hematoxylin and eosin (H&E). […] Lung fields at ×400 magnification were scored and averaged for analyses.

126-ELKNRTVSWFS-136 [Compound C11]
lung tissue CXCL1 (KC) mRNA [1]: significantly reduced | lung tissue CXCL2 (MIP-2) mRNA [1]: significantly reduced | lung tissue IL-6 mRNA [1]: significantly reduced | survival [2]: 57.1% | neutrophil-mediated B-1a cell trogocytosis [3]: significantly reduced | lung MPO activity [4]: attenuated | sepsis-induced lung injury (H&E histology, lung injury score 0 to 1) [5]: significantly mitigated
